One experiment concerns the target T1, human flk-1 (Homo sapiens, UniProt P35968).
T1 construct: expressed in transfected cells; host or cells: NIH fibroblast line (Flk-1/NIH cells, clone 3)
The experiment can be described thus: Biochemical FLK-1 assay (bio Flk), autophosphorylation ELISA. As for the experimental part: This assay evaluates flk-1 autophosphorylation activity in vitro using ELISA.
1. Seed cell into growth medium and grow for 2-3 days to 90-100% confluency at 37° C. and 5% C)2.
2. Remove the medium and wash the cells twice with PBS. Lyse with HNTG lysis buffer. Collect all lysates and vortex mix them for 20-30 seconds.
3. Remove insoluble material by centrifugation (5-10 min at about 10,000×g).
4. Determine the protein concentration using BCA kit.
5. Partition lysate into 1 mg aliquots, store at −80° C.
1. Coat Corning 96-well ELISA plates with 2 μg/well purified L4 (or E 38) in 100 μl of PBS. Store overnight at 4° C.
2. Remove unbound proteins from wells by inverting the plate to remove the liquid. Wash one time with dH2O pat plate on paper towel to remove excess liquid.
3. Block plates with 150 μl blocking buffer per well. Incubate for 45-60 minutes with shaking at 4° C.
4. Remove the blocking buffer and wash the ELISA plate three times with dH2O and one time with TBST. Pat plate on paper towel to remove excess liquid.
5. Dilute lysate in PBS to give final concentration of 50 μg/100 μl. Add 100 μl of diluted lysate to each well. Incubate with shaking at 4° C. overnight.
6. Remove unbound proteins from wells by inverting the plate. Wash as in step 4.
7. Add 80 μl of kinase buffer to wells (90 μl to negative control wells).
8. Dilute test compounds (normally 10-fold) into wells of a polypropylene plate containing 20% DMSO in TBS.
9. Add 10 μl of the diluted compounds to the ELISA wells containing immobilized flk-1 and shake. Control wells receive no compounds.
10. From stock 1 mM ATP, prepare 0.3 mM ATP solution in dH20 (alternatively, kinase buffer may be used).
11. Add 10 μl of 0.3 mM ATP to all wells except the negative controls. Incubate for 60 min. at room temperature with shaking.
12. After 1 hr stop the kinase reaction by adding 11 μl 200 mM EDTA. Shake for 1-2 min.
13. Wash the ELISA plate 4 times with dH2O and twice with TBST.
14. Add 100 μl of 1:5000 biotinylated 4G10:TBST to all wells. Incubate 45 min with shaking at room temperature.
15. While the above is incubating, add 50 μl of solutions A & B from the ABC kit to 10 ml of TBST. These solutions must be combined approximately 30 min prior to use.
16. Wash plates as in step 4.
17. Add 100 μl of the preformed A & B complex to all wells. Incubate 30 min with shaking at room temperature.
18. Wash plates as in step 4.
19. Add 100 μl turbo-TMB. Shake at room temperature for 10-15 min.
20. When the color in the positive control wells reaches an absorbance of about 0.35-0.4, stop the reaction with 100 μl of turbo-TMB stop solution.
Background: ELISA stands for enzyme-linked immunosorbent assay.

For another experiment, the target named is T2, PDGFR (Homo sapiens, UniProt P09619).
T2 construct: expressed in transfected cells; host or cells: NIH 3T3
T2 sequence (P09619 33-1106, species assumed): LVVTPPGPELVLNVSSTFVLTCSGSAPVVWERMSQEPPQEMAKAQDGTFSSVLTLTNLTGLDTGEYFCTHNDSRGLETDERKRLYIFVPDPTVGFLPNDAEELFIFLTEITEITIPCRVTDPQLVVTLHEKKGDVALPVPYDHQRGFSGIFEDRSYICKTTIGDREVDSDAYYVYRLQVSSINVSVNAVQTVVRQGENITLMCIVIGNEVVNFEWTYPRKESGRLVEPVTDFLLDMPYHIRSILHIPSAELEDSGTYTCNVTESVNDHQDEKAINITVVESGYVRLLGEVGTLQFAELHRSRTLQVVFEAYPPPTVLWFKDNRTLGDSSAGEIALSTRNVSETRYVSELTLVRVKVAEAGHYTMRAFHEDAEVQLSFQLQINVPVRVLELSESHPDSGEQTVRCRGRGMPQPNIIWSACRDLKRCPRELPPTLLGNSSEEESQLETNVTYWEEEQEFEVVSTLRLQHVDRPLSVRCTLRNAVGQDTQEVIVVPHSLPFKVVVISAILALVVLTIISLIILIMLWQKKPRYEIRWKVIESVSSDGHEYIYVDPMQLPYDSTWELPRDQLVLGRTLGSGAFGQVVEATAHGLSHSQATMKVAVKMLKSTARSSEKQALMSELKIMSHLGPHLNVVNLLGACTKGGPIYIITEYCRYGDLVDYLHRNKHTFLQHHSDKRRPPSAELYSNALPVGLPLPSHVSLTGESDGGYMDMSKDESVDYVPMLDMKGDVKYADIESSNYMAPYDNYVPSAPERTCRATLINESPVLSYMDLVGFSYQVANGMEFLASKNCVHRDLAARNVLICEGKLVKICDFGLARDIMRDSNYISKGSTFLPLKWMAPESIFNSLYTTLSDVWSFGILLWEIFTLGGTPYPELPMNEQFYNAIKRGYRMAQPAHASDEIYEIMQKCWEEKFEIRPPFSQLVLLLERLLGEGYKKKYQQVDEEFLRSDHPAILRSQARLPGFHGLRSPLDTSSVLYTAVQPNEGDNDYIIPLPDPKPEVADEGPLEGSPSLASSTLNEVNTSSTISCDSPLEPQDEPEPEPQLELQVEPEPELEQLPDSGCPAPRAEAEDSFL
The experiment can be described thus: Biochemical PDGFR assay (bio PDGFR), ELISA. As for the experimental part: This assay measures the in vitro kinase activity of PDGFR using ELISA.
6. PDGFR-β expressing NIH 3T3 cell lysate (Screening Lab, SUGEN, Inc.).
1. Coat Corning 96 well ELISA plates with 0.5 μg 28D4C10 in 100 μl PBS per well, store overnight at 4° C.
2. Remove unbound 28D4C10 from wells by inverting plate to remove liquid. Wash 1× with dH2O. Pat the plate on a paper towel to remove excess liquid.
3. Add 150 μl of Blocking Buffer to each well. Incubate for 30 min. at room temperature with shaking.
4. Wash plate 3× with deionized water, then once with TBST. Pat plate on a paper towel to remove excess liquid and bubbles.
5. Dilute lysate in HNTG (10 μg lysate/100 μl HNTG)
6. Add 100 μl of diluted lysate to each well. Shake at room temperature for 60 min.
7. Wash plates as described in 4, above.
8. Add 80 μl working kinase buffer mix to ELISA plate containing captured PDGFR.
10. Add 10 μl diluted test compound to ELISA plate.
11. Incubate for 30 minutes while shaking at room temperature.
12. Add 10 μl ATP directly to all wells except negative control well (final well volume should be approximately 100 μl with 20 μM ATP in each well.) Incubate 30 minutes while shaking.
13. After 30 minutes, stop reaction by adding 10 μl of 200 mM EDTA (pH 8.0) to each well.
14. Wash 4× with deionized water, twice with TBST.
15. Add 100 μl anti-phosphotyrosine (1:3000 dilution in TBST) per well. Incubate 30-45 min. at room temperature, with shaking.
16. Wash as described in 4, above.
17. […] Incubate 30 min. at room temperature, with shaking.
18. Wash as described in 4, above.
19. Add 100 μl of ABTS/H2O2 solution to each well.
20. Incubate 10 to 30 minutes with shaking. Remove any bubbles.
21. If necessary stop reaction with the addition of 100 μl 0.2 M HCl per well.

[1] abbreviates: bio PDGFR IC50, 50% inhibition of target PTK activity.
Setting [2] is: 50% inhibition of target PTK activity, read-out: bio Flk IC50.
The mark [3] stands for this setting: 50% inhibition of target PTK activity, read-out: bio PDGFR IC50.

Several values for one entry are separate records, joined by “and”; a condition that tells them apart may be missing. Equal values may be shown once. Read-outs that look alike come from different tables or passages of the source. Where only a bound is given, the exact number is not on record here.

As a reminder, the IC50 is the concentration at which inhibition is half-maximal.

T1 sequence (P35968 20-1356): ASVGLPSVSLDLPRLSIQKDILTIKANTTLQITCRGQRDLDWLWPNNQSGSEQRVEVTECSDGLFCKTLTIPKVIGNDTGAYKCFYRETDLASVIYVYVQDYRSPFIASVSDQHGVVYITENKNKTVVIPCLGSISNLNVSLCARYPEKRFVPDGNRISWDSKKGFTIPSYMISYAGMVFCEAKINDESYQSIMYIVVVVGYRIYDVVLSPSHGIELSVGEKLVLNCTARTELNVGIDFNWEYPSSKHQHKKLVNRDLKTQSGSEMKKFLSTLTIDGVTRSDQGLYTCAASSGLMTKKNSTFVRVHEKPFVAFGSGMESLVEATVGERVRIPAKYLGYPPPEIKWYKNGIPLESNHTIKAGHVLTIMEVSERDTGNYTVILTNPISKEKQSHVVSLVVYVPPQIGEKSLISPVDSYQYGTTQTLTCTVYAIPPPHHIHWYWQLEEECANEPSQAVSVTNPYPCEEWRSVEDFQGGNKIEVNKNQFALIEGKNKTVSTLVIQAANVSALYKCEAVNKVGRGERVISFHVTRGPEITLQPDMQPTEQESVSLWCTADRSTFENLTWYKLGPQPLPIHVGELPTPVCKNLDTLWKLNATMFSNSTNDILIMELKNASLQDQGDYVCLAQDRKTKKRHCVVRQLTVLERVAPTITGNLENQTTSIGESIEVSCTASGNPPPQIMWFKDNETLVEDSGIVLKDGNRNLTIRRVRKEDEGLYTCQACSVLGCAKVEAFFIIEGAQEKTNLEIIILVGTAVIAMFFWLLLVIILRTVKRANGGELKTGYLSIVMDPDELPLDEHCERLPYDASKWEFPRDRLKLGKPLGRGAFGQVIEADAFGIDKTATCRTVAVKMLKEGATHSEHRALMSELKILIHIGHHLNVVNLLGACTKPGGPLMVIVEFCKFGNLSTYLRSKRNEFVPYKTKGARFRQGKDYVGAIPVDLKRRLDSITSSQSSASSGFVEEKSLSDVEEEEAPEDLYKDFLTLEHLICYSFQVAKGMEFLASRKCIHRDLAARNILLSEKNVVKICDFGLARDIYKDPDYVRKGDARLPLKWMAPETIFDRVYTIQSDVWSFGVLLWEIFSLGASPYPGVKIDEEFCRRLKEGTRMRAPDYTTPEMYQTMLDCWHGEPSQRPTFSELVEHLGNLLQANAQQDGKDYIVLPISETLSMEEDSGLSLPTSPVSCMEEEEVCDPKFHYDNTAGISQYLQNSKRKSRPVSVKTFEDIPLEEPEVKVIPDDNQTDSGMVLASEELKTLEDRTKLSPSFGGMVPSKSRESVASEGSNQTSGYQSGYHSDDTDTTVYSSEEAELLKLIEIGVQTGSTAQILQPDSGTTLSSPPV

Take `COc1ccc2c(c1)CC/C2=C1/C(=O)Nc2ccccc21` [Compound 3, 3-(5-Methoxyindan-1-ylidene)-1,3-dihydroindol-2-one]: the results for the IC50 at human flk-1 and on PDGFR (setting [1]) were 2.6 µM and 86.9 µM, respectively. For the compound `CC1C/C(=C2/C(=O)Nc3ccccc32)c2ccccc21` (stereo not drawn) [Compound 1, 3-(3-methylindan-1-ylidene)-1,3-dihydroindol-2-one], the IC50 on human flk-1 (setting [2]) is 18.4 µM; on PDGFR (setting [3]), over 100 µM. For `O=C1Nc2ccccc2/C1=C1\CCc2cc(Cl)ccc21` [Compound 7, 3-(5-Chloroindan-1-ylidene)-1,3-dihydroindol-2-one], in that order: 7.1 µM and over 100 µM. With `CN(C)c1ccc2c(c1)CC/C2=C1/C(=O)Nc2ccccc21` [Compound 5, 3-(5-Dimethylaminoindan-1-ylidene)-1,3-dihydroindol-2-one], the IC50 at human flk-1 (setting [2]) turned out to be 3.1 µM; on PDGFR (setting [3]), 50.8 µM.

Take `COc1ccc2c(c1)C(CC(=O)[O-])CC2=C1C(=O)Nc2ccccc21.[Na+]` (stereo not drawn) [Compound 13, [6-Methoxy-3-(2-oxo-1,2-dihydroindol-3-ylidene)-indan-1-yl]acetic Acid Sodium Salt]: at PDGFR (setting [1]), the IC50 is 1 µM and 3.2 µM.

Take `O=C1Nc2ccccc2/C1=C1\CCc2cc(Br)ccc21` [Compound 9, 3-(5-Bromoindan-1-ylidene)-1,3-dihydroindol-2-one]: the figures for the IC50 on human flk-1 (setting [2]) and at PDGFR (setting [3]) were 2.9 µM and over 100 µM, respectively. For `Cc1cccc2c1CC/C2=C1/C(=O)Nc2ccccc21` [Compound 2, 3-(4-Methylindan-1-ylidene)-1,3-dihydroindol-2-one], the IC50 at human flk-1 (setting [2]) was 8.2 µM; at PDGFR (setting [3]), over 100 µM. For `COc1cc2c(cc1OC)/C(=C1\C(=O)Nc3ccccc31)CC2` [Compound 12, 3-(5,6-Dimethoxyindan-1-ylidene)-1,3-dihydroindol-2-one], in that order: over 25 µM and over 25 µM. For `COc1ccc2c(c1)C(CC(=O)O)C/C2=C1/C(=O)Nc2ccccc21` (stereo not drawn) [Compound 11, [6-Methoxy-3-(2-oxo-1,2-dihydroindol-3-ylidene)-indan-1-yl]acetic Acid], in that order: 0.02 µM and 1.5 µM. Regarding `O=C1Nc2ccccc2/C1=C1\CCc2ccccc21` [Compound 10, 3-Indan-1-ylidene-1,3-dihydroindol-2-one], the IC50 at human flk-1 (setting [2]) worked out at 1.4 µM; on PDGFR (setting [3]), 63.7 µM. For `O=C1Nc2ccccc2/C1=C1\CCc2cc(N3CCCCC3)ccc21` [Compound 8, 3-(5-Piperidin-1-yl-indan-1-ylidene)-1,3-dihydroindol-2-one], the IC50 on human flk-1 (setting [2]) was 4.3 µM; at PDGFR (setting [3]), over 100 µM.

Values taken from US6642251B1, “Geometrically restricted 2-indolinone derivatives as modulators of protein kinase activity” (Sugen, Inc., priority 1998, dated 2003).
